According to patent publication US20240018161A1, “MODULATORS OF CYSTIC FIBROSIS TRANSMEMBRANE CONDUCTANCE REGULATOR” (VERTEX PHARMACEUTICALS INCORPORATED, priority 2020, published 2024):
Where two headings read alike, the source gives them in different places. Values belong to the compound of their own block, whether it stands above or below them.

Assays:
[1] = from 3-[[4-[(1-benzylpiperazin-2-yl)methoxy]-6-(2,6-dimethylphenyl)pyrimidin-2-yl]sulfamoyl]benzoic acid (Dihydrochloride salt); amide bond; 14-membered ring; HATU/DIEA; DMF; 12.7 mM; 25.0 °C; 3 steps
[2] = target: T1, CFTR-mediated short-circuit current in F508del/MF-HBE cells (Homo sapiens, UniProt P13569, DEL508-508); experiment: HBE assay: Ussing chamber assay of CFTR-mediated short-circuit currents; type: cell-based; conditions: for Emax: read-out: HBE Max Activity (%)
T1 construct: human bronchial epithelial (HBE) cells derived from CF subjects; endogenous in cells; host or cells: primary human bronchial epithelial cells from CF subjects (F508del/MF-HBE)
Protocol: (§1) 1. Ussing Chamber Assay of CFTR-Mediated Short-Circuit Currents
(§2) Ussing chamber experiments were performed using human bronchial epithelial (HBE) cells derived from CF subjects heterozygous for F508del and a minimal function CFTR mutation (F508del/MF-HBE) and cultured as previously described (Neuberger T, Burton B, Clark H, Van Goor F Methods Mol Biol 2011:741:39-54). After four days the apical media was removed, and the cells were grown at an air liquid interface for >14 days prior to use.
(§3) To isolate the CFTR-mediated short-circuit (ISC) current, F508del/MF-HBE grown on Costar® Snapwell™ cell culture inserts were mounted in an Ussing chamber and the transepithelial ISC was measured under voltage-clamp recording conditions (Vhold=0 mV) at 37° C. The basolateral solution contained (in mM) 145 NaCl, 0.83 K2HPO4, 3.3 KH2PO4, 1.2 MgCl2, 1.2 CaCl2), 10 Glucose, 10 HEPES (pH adjusted to 7.4 with NaOH) and the apical solution contained (in mM) 145 NaGluconate, 1.2 MgCl2, 1.2 CaCl2, 10 glucose, 10 HEPES (pH adjusted to 7.4 with NaOH) and 30 μM amiloride to block the epithelial sodium channel. Forskolin (20 μM) was added to the apical surface to activate CFTR, followed by apical addition of a CFTR inhibitor cocktail consisting of BPO, GlyH-101, and CFTR inhibitor 172 (each at 20 μM final assay concentration) to specifically isolate CFTR currents. The CFTR-mediated ISC (μA/cm^2) for each condition was determined from the peak forskolin response to the steady-state current following inhibition.
(§4) 2. Identification of Corrector Compounds
(§5) The activity of the CFTR corrector compounds on the CFTR-mediated ISC was determined in Ussing chamber studies as described above. The F508del/MF-HBE cell cultures were either incubated with the corrector compounds at a range of concentrations in combination with 1 μM Ivacaftor or were incubated with the corrector compounds at a single fixed concentration of 10 μM in combination with 1 μM Ivacaftor for 18-24 hours at 37° C. and in the presence of 20% human serum. The concentration of corrector compounds with 1 μM Ivacaftor during the 18-24 hours incubations was kept constant throughout the Ussing chamber measurement of the CFTR-mediated ISC to ensure compounds were present throughout the entire experiment.
as §3, with “CaCl2,” for “CaCl2),”

[3] = target: T1, CFTR-mediated short-circuit current in F508del/MF-HBE cells; experiment: HBE2 assay: Ussing chamber assay of CFTR-mediated short-circuit currents; type: cell-based
Protocol: as §1, §2
as §3, with “CaCl2,” for “CaCl2),”
as §4
as §5, with “44 nM (6R,12R)-17-amino-12-methyl-6,15-bis(trifluoromethyl)-13,19-dioxa-3,4,18-triazatricyclo[12.3.1.12,5]nonadeca-1(18),2,4,14,16-pentaen-6-ol” for “1 μM Ivacaftor”, “1 and 3” for “10”, “[…]” for “20%”

[4] = F508del/MF-HBE cells, 18-24 hours incubation
[5] = F508del/MF-HBE, 18-24 hours with 1 μM Ivacaftor, 20% human serum, compared to known Vertex corrector with Tezacaftor and Ivacaftor
[6] = F508del/MF-HBE, 18-24 hours with 1 μM Ivacaftor, 20% human serum, read-out: HBE EC50

T1 sequence (P13569 with tags, fused parts or gaps DEL508-508): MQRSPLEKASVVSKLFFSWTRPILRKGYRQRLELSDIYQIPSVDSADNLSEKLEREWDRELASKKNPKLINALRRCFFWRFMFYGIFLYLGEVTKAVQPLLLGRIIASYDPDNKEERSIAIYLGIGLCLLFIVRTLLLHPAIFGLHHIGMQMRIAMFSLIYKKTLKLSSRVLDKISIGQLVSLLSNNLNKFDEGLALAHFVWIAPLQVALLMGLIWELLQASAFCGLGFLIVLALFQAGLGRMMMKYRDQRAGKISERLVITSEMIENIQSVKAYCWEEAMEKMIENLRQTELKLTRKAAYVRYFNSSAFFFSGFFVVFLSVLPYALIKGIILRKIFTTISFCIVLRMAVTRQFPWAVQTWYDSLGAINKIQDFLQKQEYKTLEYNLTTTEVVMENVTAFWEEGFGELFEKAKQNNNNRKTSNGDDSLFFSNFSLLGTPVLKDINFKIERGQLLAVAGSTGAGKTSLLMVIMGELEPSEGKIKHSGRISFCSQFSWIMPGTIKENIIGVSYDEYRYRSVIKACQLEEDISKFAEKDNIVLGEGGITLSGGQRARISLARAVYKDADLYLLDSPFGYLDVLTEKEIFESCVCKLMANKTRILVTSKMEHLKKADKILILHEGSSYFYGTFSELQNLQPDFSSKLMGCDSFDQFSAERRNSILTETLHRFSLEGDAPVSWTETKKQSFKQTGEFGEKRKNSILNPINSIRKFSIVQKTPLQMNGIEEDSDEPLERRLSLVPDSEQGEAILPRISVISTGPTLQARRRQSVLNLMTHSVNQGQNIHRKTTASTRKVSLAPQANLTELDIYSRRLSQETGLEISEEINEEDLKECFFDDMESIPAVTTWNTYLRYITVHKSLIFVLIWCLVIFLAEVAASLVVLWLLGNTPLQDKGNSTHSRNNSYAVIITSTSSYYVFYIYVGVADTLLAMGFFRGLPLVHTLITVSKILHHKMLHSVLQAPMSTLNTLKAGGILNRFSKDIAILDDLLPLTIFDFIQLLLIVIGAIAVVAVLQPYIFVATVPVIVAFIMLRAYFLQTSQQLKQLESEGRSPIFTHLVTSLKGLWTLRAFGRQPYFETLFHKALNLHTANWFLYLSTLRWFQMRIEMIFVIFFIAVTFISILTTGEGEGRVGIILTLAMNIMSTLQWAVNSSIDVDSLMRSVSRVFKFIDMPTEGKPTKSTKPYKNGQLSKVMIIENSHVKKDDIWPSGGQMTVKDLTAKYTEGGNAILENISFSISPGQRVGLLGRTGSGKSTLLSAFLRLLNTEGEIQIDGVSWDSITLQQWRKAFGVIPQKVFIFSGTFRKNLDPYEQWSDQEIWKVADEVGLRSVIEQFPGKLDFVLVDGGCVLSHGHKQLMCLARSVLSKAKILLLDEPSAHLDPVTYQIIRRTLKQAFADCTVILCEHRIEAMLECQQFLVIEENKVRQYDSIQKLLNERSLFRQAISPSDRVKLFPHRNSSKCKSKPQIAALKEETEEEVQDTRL

Compound: Cc1cccc(C)c1-c1cc2nc(n1)NS(=O)(=O)c1cccc(c1)C(=O)N1CCNC(CO2)C1 (stereo not shown)
ring closure, crude yield [1]: 22%

EC50 [2, 4]: < 1000 nM
HBE Max activity (%) [2, 4]: +++ (+++ is >60%)
Compound: Cc1cccc(C)c1-c1cc2nc(n1)NS(=O)(=O)c1cccc(c1)C(=O)N1[C@@H](c3ncc(OC(C)C)cn3)CC[C@@H](C(C)C)[C@H]1CO2 (single isomer, unassigned) [Compound 388, 13-(2,6-Dimethylphenyl)-4-(5-isopropoxypyrimidin-2-yl)-7-isopropyl-17,17-dioxo-10-oxa-17λ^6-thia-3,14,16,23-tetrazatetracyclo[16.3.1.111,15.03,8]tricosa-1(21),11,13,15(23),18(22),19-hexaen-2-one]

EC50 [2, 4]: 1000 to 3000 nM
HBE Max activity (%) [2, 4]: + (+ is <30+)
Compound: Cc1cccc(C)c1-c1cc2nc(n1)NS(=O)(=O)c1cccc(c1)C(=O)N1[C@@H](c3ncc(OC(C)C)cn3)CC[C@@H](C(C)C)[C@H]1CO2 (single isomer, unassigned) [Compound 389, 13-(2,6-dimethylphenyl)-4-(5-isopropoxypyrimidin-2-yl)-7-isopropyl-17,17-dioxo-10-oxa-17λ^6-thia-3,14,16,23-tetrazatetracyclo[16.3.1.111,15.03,8]tricosa-1(21),11,13,15(23),18(22),19-hexaen-2-one]

HBE Activity at 10 μM (%) [2]: +++ (+++ is >60%)
Compound: Cc1cccc(C)c1-c1cc2nc(n1)NS(=O)(=O)c1cccc(c1)C(=O)N1[C@@H](c3cccc(N(C)C4CC5(CC5)C4)n3)CC[C@@H](C(C)C)[C@H]1CO2 (single isomer, unassigned) [Compound 390, 13-(2,6-dimethylphenyl)-7-isopropyl-4-[6-[methyl(spiro[2.3]hexan-5-yl)amino]-2-pyridyl]-17,17-dioxo-10-oxa-17λ^6-thia-3,14,16,23-tetrazatetracyclo[16.3.1.111,15.03,8]tricosa-1(21),11,13,15(23),18(22),19-hexaen-2-one]

HBE Activity at 10 μM (%) [2]: ++ (++ is 30-60%)
Compound: Cc1cccc(C)c1-c1cc2nc(n1)NS(=O)(=O)c1cccc(c1)C(=O)N1[C@@H](c3cccc(N(C)C4CC5(CC5)C4)n3)CC[C@@H](C(C)C)[C@H]1CO2 (single isomer, unassigned) [Compound 391, 13-(2,6-dimethylphenyl)-7-isopropyl-4-[6-[methyl(spiro[2.3]hexan-5-yl)amino]-2-pyridyl]-17,17-dioxo-10-oxa-17λ^6-thia-3,14,16,23-tetrazatetracyclo[16.3.1.111,15.03,8]tricosa-1(21),11,13,15(23),18(22),19-hexaen-2-one]

HBE Activity at 10 μM (%) [2]: ++ (++ is 30-60%)
Compound: Cc1cccc(C)c1-c1cc2nc(n1)NS(=O)(=O)c1cccc(c1)C(=O)N1[C@@H](c3ncc(OC(C)C)cn3)CC[C@@H](CC(C)C)[C@H]1CO2 (single isomer, unassigned) [Compound 392, 13-(2,6-dimethylphenyl)-7-isobutyl-4-(5-isopropoxypyrimidin-2-yl)-17,17-dioxo-10-oxa-17λ^6-thia-3,14,16,23-tetrazatetracyclo[16.3.1.111,15.03,8]tricosa-1(21),11,13,15(23),18(22),19-hexaen-2-one]

HBE Activity at 10 μM (%) [2]: +++ (+++ is >60%)
activation at 3 µM [3]: > 60%
Compound: Cc1cccc(C)c1-c1cc2nc(n1)NS(=O)(=O)c1cccc(c1)C(=O)N1[C@@H](c3ncc(OC(C)C)cn3)CC[C@@H](CC(C)C)[C@H]1CO2 (single isomer, unassigned) [Compound 393, 13-(2,6-dimethylphenyl)-7-isobutyl-4-(5-isopropoxypyrimidin-2-yl)-17,17-dioxo-10-oxa-17λ^6-thia-3,14,16,23-tetrazatetracyclo[16.3.1.111,15.03,8]tricosa-1(21),11,13,15(23),18(22),19-hexaen-2-one]

HBE Max activity (%) [2, 5]: ++ (++ is 30-60%)
EC50 [2, 6]: 3000 to 30000 nM
Compound: Cc1cccc(C)c1-c1cc2nc(n1)NS(=O)(=O)c1cccc(c1)C(=O)N1[C@H](CCC[C@@H]1c1ccccn1)CO2 [Compound 327]

Emax [2, 5]: 30 to 60%
EC50 [2, 6]: 1000 to 3000 nM
Compound: Cc1cccc(C)c1-c1cc2nc(n1)NS(=O)(=O)c1cccc(c1)C(=O)N1[C@H](CCC[C@@H]1c1ccccn1)CO2 [Compound 328]

Emax [2, 5]: > 60%
EC50 [2, 6]: < 1000 nM
Compound: Cc1cccc(C)c1-c1cc2nc(n1)NS(=O)(=O)c1cccc(c1)C(=O)N1C(c3ncc(OC(C)C)cn3)CCC(C(C)C)C1CO2 (stereo not shown) [Compound 371]

HBE Activity at 10 μM (%) [2]: +++ (+++ is >60%)
Compound: Cc1cccc(C)c1-c1cc2nc(n1)NS(=O)(=O)c1cccc(c1)C(=O)N1C(c3ncc(OC(C)C)cn3)CCC(CC(C)C)C1CO2 (stereo not shown) [Compound 414]

activation at 3 µM [3]: 30 to 60%
Compound: Cc1cccc(C)c1-c1cc2nc(n1)NS(=O)(=O)c1cccc(c1)C(=O)N1[C@@H](c3cccc(N(C)C4CC5(CC5)C4)n3)CC[C@H]1[C@@H](CC(C)C)O2 [Compound 425]

activation at 3 µM [3]: 30 to 60%
Compound: Cc1cccc(C)c1-c1cc2nc(n1)NS(=O)(=O)c1cccc(c1)C(=O)N1[C@@H](c3ncc(OC(C)C)cn3)CC[C@H](O2)[C@H]1CC(C)C [Compound 426]
